PubChem BioAssay AID493102 (Broad Institute, 2011)

test system: SK-MEL-5 TRPM1-promoter luciferase reporter, 24 h; assay: TRPM1 promoter luciferase signal decrease, dose response, MITF inhibitor project, cell-based, SK-MEL-5, cherry-picked, set 4 (AID 493102);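 also: actives lower the luciferase signal so the potency reflects inhibition of reporter expression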

**Q.** `CC1CCN(CC(CS(=O)(=O)c2ccc([N+](=O)[O-])cc2)N2CCC(C)CC2)CC1` (centres undefined) was tested. Which AC50 did it give?
**A.** Its AC50 is 6.62 µM.

**Q.** For `CCCOc1ccc(C(=O)C(CN2CCCC2)c2ccccc2)cc1` (centres undefined), which AC50 is on record?
**A.** Its AC50 is 8.62 µM.

**Q.** For `CN1CCN(C2=C(NS(=O)(=O)c3cccs3)C(=O)c3ccccc3C2=O)CC1`, which AC50 is on record?
**A.** Its AC50 is 6.98 µM.

**Q.** `CC1CCC(C(C)C)C(OC(=O)Cn2c(-c3ccc(F)cc3)[n+](C)c3ccccc32)C1` (centres undefined) was tested. Which AC50 did it give?
**A.** The AC50 was 5.57 µM.

**Q.** How did the AC50 turn out when `CN1CCN(c2ccccc2NC(=O)c2ccc([N+](=O)[O-])o2)CC1` was run?
**A.** The AC50 was 4.95 µM.

**Q.** `Cc1ccc(Cn2c(=N)n(CC(=O)c3ccc([N+](=O)[O-])cc3)c3ccccc32)cc1` was tested. Which AC50 did it give?
**A.** Its AC50 is 6.42 µM.

**Q.** For `CCC(=O)OCCNc1cc(Sc2nccn2C)c2nonc2c1[N+](=O)[O-]`, which AC50 is on record?
**A.** Its AC50 is 7.16 µM.

**Q.** For `Cc1cc(C)c(C#N)c(SCc2nnc(-c3ccccc3)o2)n1`, which AC50 is on record?
**A.** The AC50 was 0.024 µM.

**Q.** Which AC50 does the source give for `CCC(C)(C)c1ccc(OCCCC[n+]2ccccc2)c(C(C)(C)CC)c1` here?
**A.** Its AC50 is 4.35 µM.

**Q.** `Cc1ccc(C)c(-n2c3nc(=O)[nH]c(=O)c-3cc3cc([N+](=O)[O-])ccc32)c1` was tested. Which AC50 did it give?
**A.** The AC50 was 8.42 µM.

**Q.** How did the AC50 turn out when `O=C(CCl)N1N=C(c2ccco2)CC1c1cccs1` (centres undefined) was run?
**A.** Its AC50 is 7.84 µM.

**Q.** For `Cc1ccc(C(=O)N/C(=C\c2ccc(-c3ccccc3[N+](=O)[O-])o2)C(=O)NCCN(C)C)cc1`, which AC50 is on record?
**A.** The AC50 was 4.87 µM.

**Q.** Which AC50 does the source give for `O=C(CCl)N(c1ccccc1)c1c[nH]c2ccccc12` here?
**A.** The AC50 was 5.08 µM.

**Q.** Which AC50 does the source give for `Nc1c(N(CCC2=CCCCC2)C(=O)COc2ccc([N+](=O)[O-])cc2)c(=O)[nH]c(=O)n1Cc1ccccc1` here?
**A.** The AC50 was 14.2 µM.

**Q.** `Cc1ccccc1-n1ncc2c([N+](=O)[O-])cc([N+](=O)[O-])cc21` was tested. Which AC50 did it give?
**A.** The AC50 was 8.7 µM.

**Q.** How did the AC50 turn out when `COc1ccc(/C=C2\SC(=O)N(CCCC(=O)Nc3cc(Cl)ccc3C(=O)O)C2=O)cc1` was run?
**A.** Its AC50 is 0.528 µM.

**Q.** `CC(C)(C)c1ccc(-c2noc(CCC(=O)NCc3ccco3)n2)cc1` was tested. Which AC50 did it give?
**A.** Its AC50 is 0.122 µM.

**Q.** `CN(C)c1ccc(/C=C2\SC(=O)N(CCc3nnc(N)s3)C2=O)cc1` was tested. Which AC50 did it give?
**A.** Its AC50 is 2.54 µM.

**Q.** `Cc1ccc(C(=O)N/C(=C\c2ccc(-c3ccccc3[N+](=O)[O-])o2)C(=O)NCCCN(C)C)cc1` was tested. Which AC50 did it give?
**A.** The AC50 was 3.28 µM.

**Q.** Which AC50 does the source give for `O=C(NCc1cccs1)c1nc2c(nnn2Cc2ccccc2Cl)c(=O)[nH]1` here?
**A.** The AC50 was 6.66 µM.

**Q.** For `CC(Oc1ccccc1)C(=O)Nc1nc(-c2ccccn2)cs1` (centres undefined), which AC50 is on record?
**A.** The AC50 was 14.1 µM.

**Q.** Which AC50 does the source give for `O=C(NCC1CCCCC1)C1(CC2CC(c3cccc(Br)c3)=NO2)CCNCC1` (centres undefined) here?
**A.** The AC50 was 18.1 µM.

**Q.** For `Cc1ccc2nc(NC(=O)CSCC(=O)OCC(=O)c3ccccc3)sc2c1`, which AC50 is on record?
**A.** The AC50 was 5.78 µM.

**Q.** `O=C(CCCN1C(=O)S/C(=C\c2ccccc2)C1=O)NNC(=O)c1ccccc1O` was tested. Which AC50 did it give?
**A.** The AC50 was 33.9 µM.

**Q.** Which AC50 does the source give for `Cn1cc([N+](=O)[O-])c(C(=O)Nc2nc(-c3ccc(Cl)cc3)cs2)n1` here?
**A.** The AC50 was 10.5 µM.

**Q.** With `CCN(CC)S(=O)(=O)c1cccc(C(=O)N/N=C/c2ccc([N+](=O)[O-])o2)c1` as the compound, how does the AC50 read?
**A.** Its AC50 is 14.1 µM.

**Q.** How did the AC50 turn out when `NCCN1C(=O)S/C(=C\c2ccc3c(c2)OCO3)C1=O` was run?
**A.** Its AC50 is 22.3 µM.

**Q.** Which AC50 does the source give for `COC(=O)C1=C(C)N(Cc2ccccc2)C(=NCc2ccccc2)N[C@H]1c1ccccc1` here?
**A.** Its AC50 is 18 µM.

**Q.** How did the AC50 turn out when `O=C(Nc1ccc(S(=O)(=O)NC2=NCCCCC2)cc1)c1ccc([N+](=O)[O-])s1` was run?
**A.** The AC50 was 5.11 µM.

**Q.** Which AC50 does the source give for `O=C(/C=C/c1cccc([N+](=O)[O-])c1)c1cccs1` here?
**A.** The AC50 was 15.3 µM.

**Q.** Which AC50 does the source give for `COc1ccccc1N(C(=O)CCl)c1cn(C(C)=O)c2ccccc12` here?
**A.** Its AC50 is 8.82 µM.

**Q.** For `COCCNC(=O)/C(C#N)=C/c1cccc(/C=C(\C#N)C(=O)NCCOC)c1`, which AC50 is on record?
**A.** Its AC50 is 12.7 µM.

**Q.** Which AC50 does the source give for `O=C1NC(=O)N(Cc2ccccc2Cl)C(=O)/C1=C/c1cccs1` here?
**A.** The AC50 was 29.7 µM.

**Q.** With `Nc1nc2n[nH]nc2c(=O)[nH]1` as the compound, how does the AC50 read?
**A.** The AC50 was 0.875 µM.

**Q.** `O=[N+]([O-])c1ccc(/C=N/n2c(CO)nc3ccccc32)s1` was tested. Which AC50 did it give?
**A.** The AC50 was 1.98 µM.

**Q.** How did the AC50 turn out when `CC(NC(=O)C12CC3CC(CC(C3)C1)C2)C(=O)NN=Cc1ccc([N+](=O)[O-])o1` (centres undefined) was run?
**A.** Its AC50 is 7.79 µM.

**Q.** `CN1C/C(=C/c2cccnc2)C(=O)/C(=C/c2cccnc2)C1` was tested. Which AC50 did it give?
**A.** Its AC50 is 5.31 µM.

**Q.** With `O=C(Nc1ccc(F)cc1)c1nc(S(=O)(=O)Cc2ccccc2)ncc1Cl` as the compound, how does the AC50 read?
**A.** The AC50 was 9.45 µM.

**Q.** With `CCS(=O)(=O)c1ccc(N=Nc2ccc(O)c3ncccc23)c(OC)c1` as the compound, how does the AC50 read?
**A.** The AC50 was 9.23 µM.

**Q.** Which AC50 does the source give for `COc1cc2c(cc1OC)C(SC)=NC1(CCCC1)C2` here?
**A.** Its AC50 is 9.44 µM.

**Q.** For `N=c1n(CC(=O)c2ccc(Br)cc2)c2ccccc2n1Cc1ccccc1`, which AC50 is on record?
**A.** Its AC50 is 6.41 µM.

**Q.** Which AC50 does the source give for `Cn1c(SCC(=O)N/N=C/c2ccc([N+](=O)[O-])s2)nnc1-c1ccccc1` here?
**A.** Its AC50 is 4.28 µM.

**Q.** How did the AC50 turn out when `CN(C)c1ccc(-n2cccc2/C=C/[N+](=O)[O-])cc1` was run?
**A.** Its AC50 is 10.2 µM.

**Q.** Which AC50 does the source give for `COc1ccc(-n2ncc3c(N4CCCCC4)ncnc32)cc1` here?
**A.** Its AC50 is 1.48 µM.

**Q.** For `O=C(O)c1cccc(NC(=O)c2cccc(NC(=O)C3CCCO3)c2)c1` (centres undefined), which AC50 is on record?
**A.** The AC50 was 21.2 µM.

**Q.** `CCSc1ccccc1C(=O)n1nnc2ccccc21` was tested. Which AC50 did it give?
**A.** The AC50 was 11.8 µM.

**Q.** Which AC50 does the source give for `Cn1cccc1C(=O)NC(=O)COC(=O)c1ccc(S(C)(=O)=O)c([N+](=O)[O-])c1` here?
**A.** Its AC50 is 9.23 µM.

**Q.** How did the AC50 turn out when `O=C(O)c1cc(N/N=C/C(Cl)=C/c2ccccc2)ccc1Cl` was run?
**A.** Its AC50 is 10.4 µM.

**Q.** Which AC50 does the source give for `O=C1C=C(N(CCO)Cc2ccccc2)c2ccccc2C1=O` here?
**A.** Its AC50 is 4.78 µM.

**Q.** How did the AC50 turn out when `CC1CCC/C=C/C(=O)c2c(O)cc(O)cc2CC(=O)O1` (centres undefined) was run?
**A.** The AC50 was 5.79 µM.

**Q.** How did the AC50 turn out when `Cc1cccc(NC2=C(NC(=O)c3ccccc3)C(=O)c3ccccc3C2=O)c1` was run?
**A.** The AC50 was 9.99 µM.

**Q.** Which AC50 does the source give for `CCN(CC)c1ccc(/C=N/NC(=O)c2cccc(S(=O)(=O)N3CCOCC3)c2)c(O)c1` here?
**A.** Its AC50 is 1.52 µM.

**Q.** For `CCOC(=O)N1CCN(C(=O)c2ccc(Cn3c(=S)[nH]c4ccc(Br)cc4c3=O)cc2)CC1`, which AC50 is on record?
**A.** The AC50 was 3.52 µM.

**Q.** For `COc1ccc(S(=O)(=O)N(C(C)=O)c2ccc(OC(C)=O)c3ccccc23)cc1[N+](=O)[O-]`, which AC50 is on record?
**A.** Its AC50 is 11.6 µM.
